In patent US4156724A, “N-acylamino-alpha-arylacetamido cephalosporins and antibacterial compositions and methods containing them” (Sumitomo Chemical Company, Limited, priority 1974, dated 1979):
Values after ≈ are worked out from the molar mass of the structure shown.

Key:
Type in all cases: cell-based
[1] = system: Staphylococcus aureus 209 P; assay: Minimum Inhibitory Concentration, Staphylococcus aureus 209 P; details: Staphylococcus aureus 209 P; read-out: Minimum Inhibitory Concentration
Experimental: (§1) anti-microbial activity tests were carried out on the compounds obtained in the Examples.

[2] = system: Staphylococcus aureus FS 289; assay: Minimum Inhibitory Concentration, Staphylococcus aureus FS 289; details: FS289; Staphylococcus aureus FS 289, strain resistant to penicillin; read-out: Minimum Inhibitory Concentration
Experimental: as §1
*Staphylococcus aureus FS 289: strain resistant to penicillin

Escherichia coli NIHJ = assay: Minimum Inhibitory Concentration, Escherichia coli NIHJ; details: Escherichia coli NIHJ; read-out: Minimum Inhibitory Concentration
Experimental: as §1

[3] = system: Klebsiella pneumoniae 602; assay: Minimum Inhibitory Concentration, Klebsiella pneumoniae 602; details: Klebsiella pneumoniae, 602, Klebsiella pneumoniae 602; read-out: Minimum Inhibitory Concentration
Experimental: as §1

Proteus vulgaris HX 19 = assay: Minimum Inhibitory Concentration, Proteus vulgaris HX 19; details: HX19; Proteus vulgaris HX 19; read-out: Minimum Inhibitory Concentration
Experimental: as §1

[4] = system: Pseudomonas aeruginosa 104; assay: Minimum Inhibitory Concentration, Pseudomonas aeruginosa 104; details: Pseudomonas aeruginosa 104; read-out: Minimum Inhibitory Concentration
Experimental: as §1

Serratia No. 72 = assay: Minimum Inhibitory Concentration, Serratia No. 72
Experimental: as §1

[5] = system: Enterobacter aerogeneus No. 75; assay: Minimum Inhibitory Concentration, Enterobacter aerogeneus No. 75; details: Enterobacter aerogeneus No. 75; read-out: Minimum Inhibitory Concentration
Experimental: as §1

Compound	MIC [1]	MIC [2]	MIC (Escherichia coli NIHJ)	MIC [3]	MIC (Proteus vulgaris HX 19)	MIC [4]	MIC (Serratia No. 72)	MIC [5]
O=C(O)C1=C(CSc2nncs2)CSC2C(NC(=O)C(NC(=O)c3cncnc3O)c3ccc(CO)cc3)C(=O)N12 (centres unmarked) [Example 95]	0.78 µg/mL (≈ 1.27 µM)	12.5 µg/mL (≈ 20.3 µM)	25 µg/mL (≈ 40.6 µM)	12.5 µg/mL (≈ 20.3 µM)	0.78 µg/mL (≈ 1.27 µM)	25 µg/mL (≈ 40.6 µM)	50 µg/mL (≈ 81.2 µM)	25 µg/mL (≈ 40.6 µM)
Cc1nnc(SCC2=C(C(=O)O)N3C(=O)C(NC(=O)C(NC(=O)c4cnccc4O)c4ccc(N)cc4)C3SC2)s1 (centres unmarked) [Example 56]	0.39 µg/mL (≈ 0.635 µM)	6.25 µg/mL (≈ 10.2 µM)	6.25 µg/mL (≈ 10.2 µM)	6.25 µg/mL (≈ 10.2 µM)	0.1 µg/mL (≈ 0.163 µM)	6.25 µg/mL (≈ 10.2 µM)	50 µg/mL (≈ 81.5 µM)	12.5 µg/mL (≈ 20.4 µM)
Cc1nc2ncc(C(=O)NC(C(=O)NC3C(=O)N4C(C(=O)O)=C(CSc5nnnn5C)CSC34)c3cccc(NC(N)=O)c3)c(O)c2nc1C (centres unmarked) [Example 42]	1.56 µg/mL (≈ 2.16 µM)	6.25 µg/mL (≈ 8.67 µM)	3.13 µg/mL (≈ 4.34 µM)	3.13 µg/mL (≈ 4.34 µM)	0.2 µg/mL (≈ 0.277 µM)	6.25 µg/mL (≈ 8.67 µM)	12.5 µg/mL (≈ 17.3 µM)	6.25 µg/mL (≈ 8.67 µM)
Cc1ccc2c(O)c(C(=O)N[C@@H](C(=O)N[C@@H]3C(=O)N4C(C(=O)O)=C(CSc5nnc(C)s5)CS[C@H]34)c3ccc(NC(N)=O)cc3)cnc2n1 [Example 25]	1.56 µg/mL (≈ 2.16 µM)	6.25 µg/mL (≈ 8.66 µM)	3.13 µg/mL (≈ 4.34 µM)	3.13 µg/mL (≈ 4.34 µM)	0.39 µg/mL (≈ 0.54 µM)	3.13 µg/mL (≈ 4.34 µM)	12.5 µg/mL (≈ 17.3 µM)	6.25 µg/mL (≈ 8.66 µM)
Cn1nnnc1SCC1=C(C(=O)O)N2C(=O)C(NC(=O)C(NC(=O)c3cnc4cccnc4c3O)c3ccc(N)cc3)C2SC1 (centres unmarked) [Example 71]	1.56 µg/mL (≈ 2.4 µM)	6.25 µg/mL (≈ 9.63 µM)	1.56 µg/mL (≈ 2.4 µM)	3.13 µg/mL (≈ 4.83 µM)	0.1 µg/mL (≈ 0.154 µM)	3.13 µg/mL (≈ 4.83 µM)	12.5 µg/mL (≈ 19.3 µM)	3.13 µg/mL (≈ 4.83 µM)
Cn1nnnc1SCC1=C(C(=O)O)N2C(=O)[C@@H](NC(=O)[C@H](NC(=O)c3ccnnc3O)c3ccc(NC(N)=O)cc3)[C@H]2SC1 [Example 17]	0.39 µg/mL (≈ 0.608 µM)	6.25 µg/mL (≈ 9.74 µM)	6.25 µg/mL (≈ 9.74 µM)	3.13 µg/mL (≈ 4.88 µM)	0.1 µg/mL (≈ 0.156 µM)	6.25 µg/mL (≈ 9.74 µM)	50 µg/mL (≈ 77.9 µM)	12.5 µg/mL (≈ 19.5 µM)

Further lines, results first:

MIC [1]	MIC [2]	MIC (Escherichia coli NIHJ)	MIC [3]	MIC (Proteus vulgaris HX 19)	MIC [4]	MIC (Serratia No. 72)	MIC [5]	Compound
0.78 µg/mL (≈ 1.24 µM)	6.25 µg/mL (≈ 9.91 µM)	6.25 µg/mL (≈ 9.91 µM)	12.5 µg/mL (≈ 19.8 µM)	0.39 µg/mL (≈ 0.618 µM)	6.25 µg/mL (≈ 9.91 µM)	50 µg/mL (≈ 79.3 µM)	12.5 µg/mL (≈ 19.8 µM)	Cc1nnc(SCC2=C(C(=O)O)N3C(=O)C(NC(=O)C(NC(=O)c4cnccc4O)c4ccc(O)c(O)c4)C3SC2)s1 (centres unmarked) [Example 183]
0.78 µg/mL (≈ 1.07 µM)	6.25 µg/mL (≈ 8.6 µM)	3.13 µg/mL (≈ 4.31 µM)	3.13 µg/mL (≈ 4.31 µM)	0.39 µg/mL (≈ 0.537 µM)	6.25 µg/mL (≈ 8.6 µM)	25 µg/mL (≈ 34.4 µM)	6.25 µg/mL (≈ 8.6 µM)	CSc1ccc2ncc(C(=O)N[C@@H](C(=O)NC3C(=O)N4C(C(=O)O)=C(CSc5nnc(CN)s5)CSC34)c3ccc(O)cc3)c(O)c2n1 (some centres unmarked) [Example 153]
0.39 µg/mL (≈ 0.719 µM)	6.25 µg/mL (≈ 11.5 µM)	12.5 µg/mL (≈ 23 µM)	12.5 µg/mL (≈ 23 µM)	0.39 µg/mL (≈ 0.719 µM)	6.25 µg/mL (≈ 11.5 µM)	> 200 µg/mL	25 µg/mL (≈ 46.1 µM)	CC(=O)OCC1=C(C(=O)O)N2C(=O)C(NC(=O)C(NC(=O)c3cnccc3O)c3cccc(O)c3)C2SC1 (centres unmarked) [Example 114]
0.78 µg/mL (≈ 1.14 µM)	12.5 µg/mL (≈ 18.3 µM)	3.13 µg/mL (≈ 4.58 µM)	6.25 µg/mL (≈ 9.15 µM)	0.78 µg/mL (≈ 1.14 µM)	3.13 µg/mL (≈ 4.58 µM)	12.5 µg/mL (≈ 18.3 µM)	6.25 µg/mL (≈ 9.15 µM)	O=C(O)C1=C(CSc2nnc(CO)s2)CSC2C(NC(=O)C(NC(=O)c3cnc4cncnc4c3O)c3cccc(O)c3)C(=O)N12 (centres unmarked) [Example 155]
1.56 µg/mL (≈ 2.29 µM)	12.5 µg/mL (≈ 18.4 µM)	12.5 µg/mL (≈ 18.4 µM)	6.25 µg/mL (≈ 9.19 µM)	0.78 µg/mL (≈ 1.15 µM)	12.5 µg/mL (≈ 18.4 µM)	50 µg/mL (≈ 73.6 µM)	25 µg/mL (≈ 36.8 µM)	Cc1ccc2c(O)c(C(=O)NC(C(=O)NC3C(=O)N4C(C(=O)O)=C(CSc5nnc(C)s5)CSC34)c3cccc(O)c3)cnc2n1 (centres unmarked) [Example 168]
0.78 µg/mL (≈ 1.3 µM)	6.25 µg/mL (≈ 10.4 µM)	6.25 µg/mL (≈ 10.4 µM)	12.5 µg/mL (≈ 20.8 µM)	0.78 µg/mL (≈ 1.3 µM)	12.5 µg/mL (≈ 20.8 µM)	50 µg/mL (≈ 83.4 µM)	12.5 µg/mL (≈ 20.8 µM)	O=C(O)C1=C(CSc2cnn[nH]2)CSC2C(NC(=O)C(NC(=O)c3cnccc3O)c3ccc(O)c(O)c3)C(=O)N12 (centres unmarked) [Example 186]
1.56 µg/mL (≈ 2.24 µM)	12.5 µg/mL (≈ 17.9 µM)	12.5 µg/mL (≈ 17.9 µM)	6.25 µg/mL (≈ 8.97 µM)	0.78 µg/mL (≈ 1.12 µM)	6.25 µg/mL (≈ 8.97 µM)	50 µg/mL (≈ 71.8 µM)	25 µg/mL (≈ 35.9 µM)	CSc1ncc2c(O)c(C(=O)NC(C(=O)NC3C(=O)N4C(C(=O)O)=C(CSc5nnnn5C)CSC34)c3cccc(O)c3)cnc2n1 (centres unmarked) [Example 162]
